# Laboratory results published in patent US9375457B2, “Composition comprising Rhizoma coptidis, Cortex phellodendri and Fructus gardeniae and for treating neurodegenerative diseases” (Hong Kong Baptist University, priority 2013, dated 2016).
# Legend:
# N2a-SwedAPP cells = assay: MTT viability assay in N2a-SwedAPP cells; format: cell-based, murine; conditions: mouse, 48 h
# Procedure: (§1) N2a-SwedAPP cells were obtained from Dr. Gopal Thinakaran (University of Chicago, Chicago, Ill., USA). N2a-SwedAPP cells were cultured in Dulbecco's modified Eagle's medium (DMEM) and OPTI-MEM medium in a 1:1 ratio with 5% FBS, 50 μg/mL penicillin, 50 μg/mL streptomycin and 200 μg/mL G418 as previously described in Thinakaran G, Teplow D B, Siman R, Greenberg B, Sisodia S S (1996) Metabolism of the “Swedish” amyloid precursor protein variant in neuro2a (N2a) cells. J Biol Chem 271: 9390-9397. N2a-SwedAPP cells were incubated at 37° C. in a 5% CO2/95% humidity incubator. Cells were seeded 24 hours prior to the treatments. When growth reached close to 90% of confluence, cells were transferred into DMEM with 1% FBS for loading extracts. The final concentration of DMSO in all experiments was 0.1%, and this concentration caused no cytotoxicity.
# For the viability assay, N2a-SwedAPP cells were seeded in a 96-well plate (7000 cells/well and 5000 cells/well). […] Finally, optical intensity was measured using a BioRad plate reader at 570 nm and a reference of 620 nm. […]
# N2a-SwedishAPP cells are widely used as a cellular model of Alzheimer's disease, because they express a high level of APP and Aβ. The effects of HLJDT and its components on viability of N2SwedAPP cells are monitored by using the MTT assay. […]
# [1] = tested on: APP processing (F1-APP, pAPPThr668, CTFs, sAPPα, sAPPβ-sw) in N2a-SwedAPP cells; assay: Western blot of APP metabolic products in N2a-SwedAPP cells; format: cell-based, murine; design: key to Fl-APP (overall influence) / CTFs (overall influence) / sAPPα (overall influence) / sAPPβ (overall influence): ↓ decreased; ↑ increased; ? unchanged
# Procedure: as §1
# To detect the levels of APP metabolic products, the cell lysates and the conditioned media were prepared as described in Durairajan S S K, Liu L F, Lu J H, Koo I, Maruyama K, Chung S K, Huang J D, Li M. (2011) Stimulation of non-amyloidogenic processing of amyloid-β protein precursor by cryptotanshinone involves activation and translocation of ADAM10 and PKC-α. J Alzheimer's Dis 25: 245-262, with minor modification. N2a-SwedAPP cells were seeded at a density of 4×10^5/mL in DMEM medium in a 6-well plate and cultured for 1 day. After transfer, cells were treated with different doses of RC, CP, FG and RS for 48 hours, then the extracellular media were collected for detection of sAPPα and sAPPβ-sw, and cells were harvested to quantify F1-APP and β-actin by Western blot analysis, as described previously by Durairajan et al. For intracellular APP, APP-CTFs and Aβ preparation, cells were washed with ice-cold PBS twice and solubilized in ice-cold RIPA buffer with protease inhibitor cocktail added. Lysates were collected and centrifuged at 16,000×g for 15 minutes at 4° C. The resulting supernatants were collected, and their protein concentrations were determined with bicinchoninic acid (BCA) protein assay reagent (Thermo Scientific, IL, USA). For sAPPα and sAPPβ-sw detection, the conditioned media are collected and frozen in liquid nitrogen, subjected to lyophilization at −40° C. under vacuum of 105 μbar for 2 days in order to remove all liquid. The conditioned media were standardized to total cell lysate protein.
# For Western blot analysis from cell culture or mouse brain, 10-30 μg total protein is separated on 10% and 15% SDS-PAGE gels and blotted onto PVDF membranes for the detection of full length APP (F1-APP), CTFs, sAPPα, sAPPβ-sw, 3-actin and phosphorylated APP (pAPPThr668). After blocking with 5% skimmed milk, the blots are incubated with primary antibodies overnight at 4° C. with shaking. Blots are washed and incubated with HRP-conjugated secondary antibodies. The goat anti-mouse IgG is used when the primary antibody is 6E10 (1:1000), sAPPβ-sw (1:100), or anti-β-actin (1:5000), and the goat anti-rabbit IgG is used when the primary antibody is anti-CT15 (1:5000) or pAPPThr668 (1:1000). After incubation with HRP-conjugated secondary antibody, immunoblots are treated with ECL and developed using X-ray films (Fujifilm). Films are scanned, and the band intensity is analyzed using Image J software (NIH Image).
# Stripped CT15 and 6E10 probed membranes are reincubated with pAPPThr668 and sAPPβ-sw 6A1 antibodies, respectively.
# Western blotting of N2a-SwedAPP cells is used to test differences in the processing of Swedish mutant APP by HLJDT components. Several antibodies are used in Western blot analysis: CT15 recognizes full length APP (F1-APP), 6E10 identifies only α-secretase-cleaved APP i.e sAPPα, and the sAPPβ-sw specific for β-secretase cleavage of Swedish mutant APP.
smiles,measurement,setting,value
O=c1cc(-c2ccccc2)oc2cc(O)c(O)c(O)c12 [baicalein],non-toxic concentration (highest concentration that shows greater than 90% cell viability),N2a-SwedAPP cells,12.5 µM
same,"maximal increase of CTFs, fold of basal release","[1]; 12.5 μM, 48 hours",2.36 fold
same,"maximal increase of F1-APP, fold of basal release","[1]; 12.5 μM, 48 hours",1.68 fold
same,"maximal increase of pAPPThr668, fold of basal release","[1]; 12.5 μM, 48 hours",1.58 fold
same,"maximal secretion of sAPPα, fold of basal release","[1]; 12.5 μM, 48 hours",2.65 fold
same,"maximal secretion of sAPPβ-sw, fold of basal release","[1]; 12.5 μM, 48 hours",1.70 fold
same,CTFs (overall influence),[1]; N2a-SwedAPP cells,↑
same,Fl-APP (overall influence),[1]; N2a-SwedAPP cells,↑
same,sAPPα (overall influence),[1]; N2a-SwedAPP cells,↑
same,sAPPβ (overall influence),[1]; N2a-SwedAPP cells,↑
